Assay results published in PMC12193374, “Exploring Carboxamide Derivatives as Promising Anticancer Agents: Design, In Vitro Evaluation, and Mechanistic Insights” (International Journal of Molecular Sciences, 2025).

Tests used:
Assay type in all cases: cell-based
[1] = test system: human dermal fibroblast normal cell line; experiment: MTT assay, normal dermal fibroblasts; details: 72 h treatment, read-out: IC50 (µM) ± S.D. Dermal Fibroblast Normal
Protocol: (§1) The proliferation inhibitory activities of the carboxamide derivatives 4-16 were tested in vitro using the MTT assay against the human cancer MCF-7, K-562, and HCT-116 cell lines in addition to normal human cells (dermal fibroblasts) to evaluate their putative selective cytotoxic activities. […] The human colorectal carcinoma (HCT-116), human breast adenocarcinoma (MCF-7), human chronic myelogenous leukemia (K-562), and human dermal fibroblast normal cell lines were purchased from were purchased from the American Type Culture Collection (ATCC) (Manassas, VA, USA) and stored in liquid nitrogen. Cells were passaged twice weekly upon reaching 70–80% confluency, and only low passage numbers (≤ 10) were used in all experiments. Mycoplasma contamination was monitored using the Lonza MycoAlert™ mycoplasma detection kit. Cells were sub-cultured and maintained with appropriate media: RPMI-1640 medium (Buffalo, New York, USA) was used to grow MCF-7, K-562 and HCT-116 cancer cells, while fibroblast cells were cultured in Iscove’s Modified Dulbecco’s medium (IMDM) (EuroClone S.p.A., Pero, MI, Italy). Both media were supplemented with 10% (v/v) heat-inactivated fetal bovine serum (FBS) (Gibco, CA, USA), 2 mM of L-Glutamine, 100 units/mL of Penicillin, and 100 μg/mL of Streptomycin (EuroClone, Italy). Cells were maintained at 37 °C in a humidified incubator with 5% CO2 (NuAire, Plymouth, MN, USA). The MTT colorimetric assay utilized in this study was previously described and adapted from Mosmann. The MTT regent [3-(4,5-dimethylthiazol-2-yl)-2,5-diphenyl tetrazolium bromide] was employed to evaluate the antiproliferative activities of carboxamides 4-16 against MCF-7, K-562, HCT-116, and dermal normal fibroblast cell lines. Cells (6–8 × 10^3 per well, 180 µL) were seeded into 96-well plates (Corning, New York, USA) and allowed to adhere overnight at 37 °C in a humidified 5% CO₂ incubator. Fresh top stock solutions of the test compounds (10 mM in DMSO) were then freshly prepared, followed by serial dilutions in the appropriate culture media before being added to the seeded cells. […] Initial screening for potential antiproliferative activity was carried out using two concentration points (10 µM and 50 µM) in triplicate over a 72-hour incubation period. […] Following 72 h of exposure, MTT solution (2 mg/mL in PBS, 50 µL per well) was added, and plates were incubated for an additional 4 h. The supernatant in each well was then removed, and the resulting formazan crystals were solubilized by adding DMSO (150 µL per well). Absorbance, measured as the optical density (OD), was recorded at 570 nm using a microplate reader (Thermo Fisher Scientific, Waltham, MA, USA). The detected signal intensity corresponds to metabolic activity, which directly correlates with the viable cell number. All experiments were performed in triplicate, and the results are presented as the mean ± standard deviation (SD). The IC50 values for antiproliferative activity were calculated using nonlinear regression analysis in GraphPad Prism software (GraphPad Prism version 9.0.0 for Windows, GraphPad Software, San Diego, California USA). Additionally, a two-way ANOVA test was conducted to analyze significant variations in IC50 values, with a significant level set at α = 0.05.

[2] = test system: K-562 human chronic myelogenous leukemia cells; experiment: MTT antiproliferative assay, K-562; details: for IC50: Homo sapiens, K562, 72 h, MTT, 72 h treatment, mean ± SD, read-out: IC50 (µM) ± S.D. K-562 Leukemia; for Selectivity index (IC50 normal fibroblast/IC50 K-562): fibroblasts/leukemia, third value of the SI cell
Protocol: as §1

[3] = test system: MCF-7 human breast adenocarcinoma cells; experiment: MTT antiproliferative assay, MCF-7; details: for IC50: Homo sapiens, MCF7, 72 h, read-out: IC50 (µM) ± S.D. MCF-7 Breast Cancer; for Selectivity index (IC50 normal fibroblast/IC50 MCF-7): fibroblasts/breast cancer, second value of the SI cell
Protocol: as §1

[4] = test system: HCT-116 human colorectal carcinoma cells; experiment: MTT antiproliferative assay, HCT-116; details: for IC50: Homo sapiens, HCT-116, MTT, 72 h treatment, mean ± SD, read-out: IC50 (µM) ± S.D. HCT-116 Colon Cancer; for Selectivity index (IC50 normal fibroblast/IC50 HCT-116): fibroblasts/colon cancer, first value of the SI cell; for Selectivity for HCT-116 over MCF-7: ratio of MCF-7 to HCT-116 IC50
Protocol: as §1

| SMILES | IC50 [1] | IC50 [2] | Selectivity index (IC50 normal fibroblast/IC50 K-562) [2] | IC50 ([3]; MTT, 72 h treatment, mean ± SD) | Selectivity index (IC50 normal fibroblast/IC50 MCF-7) [3] | IC50 [4] | Selectivity index (IC50 normal fibroblast/IC50 HCT-116) [4] | IC50 (µM) ± S.D. MCF-7 Breast Cancer ([3]; MTT, 72 h treatment, mean ± SD) | Selectivity for HCT-116 over MCF-7 [4] |
| --- | --- | --- | --- | --- | --- | --- | --- | --- | --- |
| O=C(Nc1ccc(F)cc1)c1cc2ccccc2[nH]1 [Compound 6, N-(4-Florophenyl)-1H-indole-2-carboxamide] | > 100 µM | 84.6 ± 4.23 µM | > 1.2 | 80.8 ± 4.04 µM | > 1.2 | 25.4 ± 0.38 µM | > 3.9 |  |  |
| O=C(Nc1ccc([N+](=O)[O-])cc1)c1cc2ccccc2[nH]1 [Compound 8, N-(4-Nitrophenyl)-1H-indole-2-carboxamide] | > 100 µM | > 100 µM |  | > 100 µM |  | 32 ± 0.83 µM | > 3.1 | exceptional resistance |  |
| O=C(Nc1ccccn1)c1cc2ccccc2[nH]1 [Compound 10, N-(Pyridin-2-yl)-1H-indole-2-carboxamide] | > 100 µM | > 100 µM |  | 70.3 ± 3.52 µM | > 1.4 | 1.01 ± 0.04 µM | > 99.4 |  | 69.6 fold |
| O=C(Nc1cccc2c1C(=O)c1ccccc1C2=O)c1ccco1 [Compound 16, N-(9,10-Dihydro-9,10-dioxoanthracen-1-yl)-2-furamide] | > 100 µM | > 100 µM |  | 33.1 ± 1.66 µM | > 3.0 | 3.11 ± 0.049 µM | > 32.2 |  | 10.6 fold |
| O=C(Nc1ccc2c(c1)C(=O)c1ccccc1C2=O)c1cc2ccccc2[nH]1 [Compound 14, N-(9,10-Dihydro-9,10-dioxoanthracen-2-yl)-1H-indole-2-carboxamide] | > 100 µM |  | > 164 | 7.16 ± 0.36 µM | > 14.0 | 2.64 ± 0.07 µM | > 37.9 |  |  |
| O=C(Nc1ccc(Cl)cc1)c1cc2ccccc2[nH]1 [Compound 4, N-(4-Chlorophenyl)-1H-indole-2-carboxamide] | > 100 µM | 0.61 ± 0.03 µM | > 164 | 10.6 ± 0.53 µM | > 9.4 | 3.94 ± 0.03 µM | > 25.4 |  |  |
| O=C(Nc1cccc2c1C(=O)c1ccccc1C2=O)c1cc2ccccc2[nH]1 [Compound 12, N-(9,10-Dihydro-9,10-dioxoanthracen-1-yl)-1H-indole-2-carboxamide] | > 100 µM | 0.33 ± 0.02 µM | > 303 |  | > 11.0 | 3.98 ± 0.06 µM | > 25.1 |  |  |
